“And” between values parts separate entries of the source, which are not always exact repeats. Equal entries are not always repeated.
Legend:
[1] = tested on: HCT116+/+ cells (In Vivo); test: Microarray analysis of EGF-family mRNA in HCT116 xenograft tumours after chemotherapy; design: species or system human; details: for EGF (Epidermal Growth factor) fold change, microarray: drug treated against untreated control
Description: 6-8 week old female SCID mice were implanted with 2×10^6 HCT116+/+ human colorectal adenocarcinoma cells into each flank. HCT116 cells in a log phase of growth were harvested, washed in PBS and resuspended in HBSS. They were mixed with equal volumes of matrigel to give a final concentration of 5×10^6 cells/ml. Mice were randomly separated into treatment groups on day 5 after implantation and treated with different doses of chemotherapy. […] All drugs were administered through a bolus injection. Animals were sacrificed at various time points and tumours were removed for analysis
Approximately 10 μg total RNA was isolated from tumour cells and was used as the starting material for preparation of probes. The microarray analysis was carried using an Affymetrix U133 plus 2.0 GeneChip®. Probes were prepared as per the manufacturers recommendations.
After RNA extraction, samples were reverse transcribed into cDNA which was then purified on a column prior to labelling. The probes were then amplified and labelled using Oligo(dT)-primed in vitro transcription generating high-yield, biotinylated targets from the 3′-end. […] For the next stage the fragmented cRNA was hybridised to the array for 16 hours at 45° C. Following this the array was washed and stained with streptavidin-phycoerythrin (SAPE) using a fluidics station and scanned using a GeneChip® Scanner 3000. Stained images were then analysed.
Initially the data was scaled using the Affymetrix® GCOS (Genechip® Operating System) software, to assess quality metrics. The data was then normalized against a control sample. After normalisation the data was filtered removing all genes where the noise level obscured signal and were fold change was […] 2-fold. Finally a confidence filter where the t-test p-value were used to filter the genes to derive lists of statistically robust data.
Each treatment type and timepoint was carried out in triplicate and statistics and filtering were applied to the whole data set from each condition.
A xenograft study was set up to examine the genetic response to 2 different chemotherapeutic drugs 24 and 48 hours after treatment. Each mouse was implanted with equal volumes of HCT116 cells and each condition was performed in triplicate.
RNA isolated from tumours in each of the 12 mice was subjected to microarray analysis to measure mRNA expression levels. Fold change values for drug treated against untreated control is presented.

H460 lung cancer cells = test: RT-PCR of AREG RNA in H460 lung cancer cells after chemotherapy; format: cell-based; details: 48 hour treatment
Description: FIG. 5 illustrates analysis of AREG and beta actin RNA expression in H460 lung cancer cells with/without either a 48 hour CPT11 treatment or 5-Fu treatment. RNA levels were analyzed following 35 cycle of PCR to determine relative differences in expression between treated and untreated samples.
(§1) Cells in a log phase of growth were seeded into T75 flask at ˜20% confluence and incubated overnight to allow adherence to the plate. […] Chemotherapy was substituted with saline in control flasks. After different time exposure to chemotherapy the cells were harvested, washed 3 times in PBS and total RNA was isolated using the RNA TAT-60 reagent according to the manufacturer instructions.
(§2) Reverse transcription was performed with 2.5 μg of RNA using a High Capacity cDNA Archive kit (Applied Biosystem) according to the instruction of the manufacturer.
(§3) Semi quantitative RT-PCR was performed using a PTC 225 Gradient Cycler (MJ Research Incorporated. The PCR mixture, in a final volume of 25 μL, contains 12.5 μL of 2× Biomix (Bioline, UK), 2 μL of primers (10 μmol/L), 1 μL of cDNA and 9.5 μL of dH2O). PCR conditions were initial denaturation step of 95 C for 10 minutes, followed by 35 cycles of 95° C. for 30 sec for denaturation; as annealing step 55° C. for 30 sec; and extension at 72° C. for 90 sec, with a final extension of 72° C. for 10 minutes. […]

HCT116 = test: RT-PCR of AREG RNA in HCT116 cells after chemotherapy; format: cell-based, human; details: 48 h after treatment, 7.5 μM
Description: FIG. 1B illustrates analysis of AREG and beta actin RNA expression in HCT116 +/+ with/without a 48 hour CPT11 treatment. RNA levels were analyzed following 35 cycles of PCR to determine relative differences in expression between treated and untreated samples;
(§4) FIG. 6 illustrates AREG upregulation following chemotherapeutic challenge in A) HT29, B) HCT116 and C) MDA-MB231 cells. Cells were treated with/without chemotherapy for 48 hours. RT-PCR was performed with 1 μg of total RNA using primer pairs specific for the human AREG gene or GAPDH. The PCR products were separated on 1.5% agarose gel electrophoresis and visualized by ethidium bromide staining.
as §1, with “instructions. […]” for “instructions.”
Semi quantitative RT-PCR was performed using a PTC 225 Gradient Cycler (MJ Research Incorporated. The PCR mixture, in a final volume of 25 μL, contains 12.5 μL of 2× Biomix (Bioline, UK), 2 μL of primers (10 μmol/L), 1 μL of cDNA and 9.5 μL of dH2O). […]

[2] = tested on: MDA-MB231 breast carcinoma cell line; test: RT-PCR of AREG mRNA in MDA-MB231 cells after chemotherapy; format: cell-based, human; details: IC50 dose, 48 hours
Description: as §4
For Example 2, Total RNA was isolated from cells following the RNA STAT-60 manufacturer's protocol (Biogenesis, Poole, U.K.). RT-PCR was performed with 1 μg of total cell RNA using a Promega ImProm-II™ Reverse Transcription System (Promega, Southhampton, UK). PCR was performed using primer pairs specific for human AREG (Forward 5′-[…]-3′(SEQ ID No:19), Reverse 5′-[…]-3′ (SEQ ID No:20)), human HB-EGF (Forward 5′-[…]-3′(SEQ ID No:21), Reverse 5′-[…]-3′(SEQ ID No:22)), human GAPDH as a control (Forward 5′[…]-3′(SEQ ID No:23), Reverse 5′ […]-3′(SEQ ID NO:24)) and human Beta-actin as a control (Forward 5′-[…]-3′(SEQ ID No:25), Reverse 5′-[…]-3′(SEQ ID No:26)).
The PCR products were separated on 1.5% agarose gel and visualized by ethidium bromide staining.

RKO +/+ = test: Semi quantitative RT-PCR of AREG RNA in RKO cells after chemotherapy; format: cell-based, human; details: 48 h after treatment, 7.5 μM
Description: FIG. 1A illustrates analysis of AREG and beta actin RNA expression in RKO +/+ with/without either a 48 hour CPT11 treatment or 5-Fu treatment. RNA levels were analyzed following 35 cycle of PCR to determine relative differences in expression between treated and untreated samples;
as §1, §2, §3

[3] = HCT116+/+ xenograft, 70 mg/kg bolus, 24 h, vs untreated control
[4] = HCT116+/+ xenograft, 70 mg/kg bolus, 24 h, vs untreated control, 70 mg/kg
[5] = HCT116 xenograft, treated by 5-FU, time not stated

O=c1[nH]cc(F)c(=O)[nH]1 [5-FU, 5-Fluorouracil]
EGF (Epidermal Growth factor) fold change, microarray ([1]; HCT116+/+ xenograft, 70 mg/kg bolus, 24 h): −2.4 fold
NRG3 fold change, microarray [1, 3]: −2.1 fold
NRG4 fold change, microarray [1, 3]: −1.1 fold
HB-EGF (Heparin-Binding EGF-like growth factor) fold change, microarray [1, 4]: 1.6 fold and 3.1 fold
TGF alpha (Transforming Growth factor alpha) fold change, microarray [1, 4]: 1.3 fold and 1.8 fold
EGF (Epidermal Growth factor) fold change, microarray ([1]; HCT116+/+ xenograft, 70 mg/kg bolus, 48 h): −3.8 fold
NRG4 fold change, microarray ([1]; HCT116+/+ xenograft, 70 mg/kg bolus, 48 h, vs untreated control): −1.8 fold
fold change values for AREG mRNA expression, treated against untreated controls ([1]; HCT116 xenograft, 70 mg/kg, after 48 hours): 2.1 fold
HB-EGF regulation in micro-array analysis [1, 5]: up-regulation
TGF regulation in micro-array analysis [1, 5]: up-regulation
AREG RNA expression (RT-PCR, 35 cycles) (H460 lung cancer cells): enhanced expression of AREG
AREG RNA expression (RT-PCR) (HCT116): upregulation
AREG mRNA expression (RT-PCR) [2]: up-regulation
AREG RNA expression (RT-PCR) (RKO +/+): upregulation

From patent US20100111965A1, “COMBINATION THERAPY” (FUSION ANTIBODIES LIMITED, priority 2006, published 2010)
